Measurements taken from patent publication US6875575B1, “Diagnostic methods for neoplasia” (OSI Pharmaceuticals, Inc., priority 1998, dated 2005).
“Also recorded” adds a separate entry of the source. Where two headings read alike, the source gives them in different places.

Assays:
[1] = system: PDE peak B (novel cGMP-specific PDE); experiment: cGMP hydrolysis by PDE peak B from SW-480 cells; assay type: biochemical, human
neoplastic cells = experiment: Apoptosis induction in neoplastic cells; assay type: cell-based
PDE peak A (PDE5) = molecular target: T1, PDE peak A (PDE5) (Homo sapiens, UniProt O76074); experiment: cGMP hydrolysis by PDE peak A from SW-480 cells; assay type: biochemical
T1 construct: SW-480 cells are collected and homogenized; endogenous in cells; host or cells: SW-480 cells; supernatant fractionated on DEAE-Trisacryl M, peak A

HT-29 cells = experiment: Apoptosis and necrosis by morphology (acridine orange/ethidium bromide); assay type: cell-based; settings: HT-29 cells treated for six days
Experimental: In one type of apoptosis assay, suspected neoplastic cells are removed from a patient. The cells are then grown in culture in the presence or absence of a cGMP-specific PDE inhibitor. Apoptotic cells are measured by combining both the attached and “floating” compartments of the cultures. The protocol for treating tumor cell cultures with PDE inhibitors and related compounds to obtain a significant amount of apoptosis has been described in the literature. (See, Piazza, G. A., et al., Cancer Research, 55:3110-16, 1995, which is incorporated herein by reference). The novel features of this assay include collecting both floating and attached cells, identification of the optimal treatment times and dose range for observing apoptosis, and identification of optimal cell culture conditions. […]
Apoptotic and necrotic cell death was determined as previously described (Duke and Cohen, In: Current Protocols in Immunology, 3.17.1-3.17.16, New York, John Wiley and Sons, 1992). […]
The diagnostic method of this invention is used to determine whether a particular neoplasia is sensitive to treatment with a cGMP-specific PDE inhibitor. The apoptosis inducing activity for a series of phosphodiesterase inhibitors, specific for different PDEs, was determined. […] Apoptosis and necrosis were determined morphologically after acridine orange and ethidium bromide labeling in accordance with the assay described, supra.

[2] = system: colonic polyps (dysplastic tissue); experiment: Apoptosis clinical study: apoptotic labeling index (ALI) in polyps; assay type: in vivo, human
Experimental: (§1) Increases in apoptosis are indicative that the neoplasia in question is sensitive to treatment with a cGMP-specific PDE inhibitor, such as sulindac sulfone (aposulind). A human in vivo aposulind-induced selective induction of apoptosis in colonic polyps is described below. Six familial polyposis patients per group were administered one of three doses of aposulind (200 mg, 400 mg which was later lowered to 200 mg for most patients in the group, or 300 mg) twice daily (BID).
(§2) Biopsies are taken from patients and used to investigate possible cellular mechanisms of apoptosis. Biopsy samples are placed in transfer media (500 ml RPMI 1640 containing 50 ml fetal calf serum, 5×10^8 units penicillin G, and 5×10^6 μg streptomycin) and kept on ice for less than 1 hour until transfer to the pathology department. Upon receipt in the pathology department, samples are removed from the transfer media and oriented mucosa up, serosa down on filter paper, placed between biopsy sponges in a tissue cassette, and fixed in 10% neutral buffered formalin for 24 hours. Samples are then transferred to 70% ethanol and embedded in paraffin. Samples are oriented perpendicularly to the tissue cassette during final orientation in paraffin for longitudinal crypt exposure and easy visualization of mucosa and the relation to the basement membrane.
Four micron sections of tissue were cut, mounted, deparaffinized, rehydrated in graded alcohol, and treated with pepsin (5 mg/ml) to digest protein in the tissue. Sections were washed and treated with 2% hydrogen peroxide (H2O2) in PBS to quench endogenous peroxidase and washed again. Tissue samples were then circled with a PAP pen (Research Products Int., 800-323-9814) to produce a hydrophobic barrier to concentrate reagents on the sample. […]
(§3) Apoptotic and nonapoptotic cells are counted on the basis of staining and morphology. An apoptotic labeling index (ALI) is calculated by dividing the total number of apoptotic cells counted by the total number of epithelial cells counted and expressing the quotient as a percentage.

normal mucosa = experiment: Apoptosis clinical study: ALI in normal mucosa; assay type: in vivo, human; settings: any of the treatment groups
Experimental: as §1
as §2, with “Samples are then transferred to 70% ethanol and embedded in paraffin. Samples are oriented perpendicularly to the tissue cassette during final orientation in paraffin for longitudinal crypt exposure and easy visualization of mucosa and the relation to the basement membrane.” left out
as §3

| SMILES | inhibition of peak B / new cGMP-PDE (in words) [1] | induction of apoptosis in neoplastic cells (in words) (neoplastic cells) | inhibition of peak A / PDE5 (in words) (PDE peak A (PDE5)) | also measured |
| --- | --- | --- | --- | --- |
| O=C(O)C1CCN(c2nc(NCc3ccc4c(c3)OCO4)c3cc(Cl)ccc3n2)CC1 [Compound E4021] | E4021-insensitive | do not have significant apoptosis-inducing or growth-inhibiting properties |  | inhibition of peak B / new cGMP-PDE (in words) ([1]; listed as E402 1): relatively insensitive to inhibition |
| COc1cc(/C=C2/C(C)=C(CC(=O)NCc3ccccc3)c3cc(F)ccc32)cc(OC)c1OC [Compound E, (Z)-5-fluoro-2-methyl-1-(3,4,5-trimethoxybenzylidene)-3-indenylacetamide, N-benzyl] | competitively inhibit | induce apoptosis in neoplastic cells | competitively inhibit |  |
| CC1=C(CC(=O)O)c2cc(F)ccc2/C1=C\c1ccc(S(C)(=O)=O)cc1 [Exisulind, (Z)-5-fluoro-2-methyl-1-[[4-(methylsulfonyl)phenyl]methylene]indene-3-yl acetic acid] |  |  |  | apoptotic and necrotic cell death (FIG. 1) (HT-29 cells): capable of causing apoptotic cell death without inducing neoplastic cell necrosis; change in ALI following treatment ([2]; 200 mg BID group): did not demonstrate any elevation in ALI; change in ALI in polyps ([2]; 300 mg BID, six months of treatment): two fold increase in ALI; change in ALI of dysplastic tissue following drug treatment ([2]; 400/200 mg BID group when uniformly dosed at 400 mg BID): two-fold elevation in ALI; normal mucosa ALI versus baseline ALI during treatment (normal mucosa): no significant change |
| CC1(C)C(=O)Nc2ccc(C3=NNC(=O)CC3)cc21 [Indolidan] | relatively insensitive |  |  |  |
| COc1ccc(C2CNC(=O)C2)cc1OC1CCCC1 (centres unmarked) [Rolipram] | relatively insensitive |  |  |  |
| CCCc1nn(C)c2c(=O)[nH]c(-c3cc(S(=O)(=O)N4CCN(C)CC4)ccc3OCC)nc12 [Sildenafil] | relatively insensitive to inhibition | do not have significant apoptosis-inducing or growth-inhibiting properties | inhibited activity of peak A |  |
| CSc1ccc(/C=C2/C(C)=C(CC(=O)O)c3cc(F)ccc32)cc1 [Sulindac sulfide, sulindac sulfide] | inhibit | induce apoptosis in neoplastic cells | inhibit | apoptotic and necrotic cell death (FIG. 1) (HT-29 cells): capable of causing apoptotic cell death without inducing neoplastic cell necrosis; inhibition of peak A / PDE5 (in words) (PDE peak A (PDE5); listed as sulindac sulfide): competitively inhibit; inhibition of peak B / new cGMP-PDE (in words) ([1]; listed as sulindac sulfide): competitively inhibit |
| CCOC(=O)C1=C[C@]2(CC)CCCN3CCc4c(n1c1ccccc41)[C@@H]32 [Vinpocetine] | relatively insensitive |  |  |  |
| CCCOc1ccccc1-c1nc2nn[nH]c2c(=O)[nH]1 [Zaprinast] | relatively insensitive to inhibition; also recorded: zaprinast-insensitive | do not have significant apoptosis-inducing or growth-inhibiting properties | competitive inhibition |  |
